Data on 14 molecules can be found in PMC6830309, “Characterizing CDK8/19 Inhibitors through a NFκB-Dependent Cell-Based Assay” (Cells, 2019).

Experiment [1] relates to TNFα-induced NFκB reporter activity in WT 293 cells (CDK8/19 inhibition). In words: NFκB-dependent luciferase reporter cell-based assay in WT 293 cells. Also noted: species or system human. To be noted: for extent of inhibition of NFκB-dependent promoter activation: WT cells. Here is the method: (§1) The lentiviral construct pHAGE-NFkB-TA-LUC-UBC-dTomato was generated by Darrell Kotton […] Parental WT 293 cells or CDK8/19 dKO 293 cells were transduced with the lentivirus and dTomato-positive cells were sorted out using FACS Aria III. Single-cell clones were expanded and tested for luciferase reporter activities under TNFα- and/or senexin B-treated and untreated conditions with Bright-Glo Luciferase Assay System (Promega, Madison, WI, USA).
(§2) On day 1, cells were seeded in polyethyleneimine-coated 96-well plates at the density of 5 × 10^4 cells per well. […] Chemiluminescence intensity of each well was measured with ChemiDoc Touch™ (Bio-Rad) and quantified using ImageLab software (Bio-Rad). The raw data were then further processed with GraphPad Prism 7.0 (GraphPad Software, San Diego, CA, USA) for curve-fitting and IC50 calculation.
(A reporter such as luciferase makes a cellular process visible.)

The next experiment relates to CXCL1 mRNA expression. In words: QPCR of TNFα-induced CXCL1 mRNA in 293 cells and CDK8/19 knockout derivatives. Format: cell-based, human. To be noted: dKO 293 cells; 1 μM senexin B. As for the experimental part:
(§3) Cells were seeded in 12-well plates at density of 3 × 10^5 cells per well in regular culture media 24 h before treatment. Cells were first pre-treated with 1 μM senexin B or solvent control DMSO (0.1%) for 1 h and then treated with or without 10 ng/mL TNF-α for 2 h. Total RNA was extracted using RNAeasy Mini Kit (Qiagen, Germantown, MD, USA) and 1 µg of total RNA was used to generate cDNA using iScript cDNA synthesis kit (Bio-Rad). Gene expression was quantified using iTaq Universal SYBR green super mix on the CFX384 Real time system (Bio-Rad). The primers used for real-time PCR were: CXCL1-F, […]; CXCL1-R, […]; IL8-F, […]; IL8-R, […]; RPL13A-F, […] and RPL13A-R, […].

The next experiment deals with IL8 mRNA expression. In words: QPCR of TNFα-induced IL8 mRNA in 293 cells and CDK8/19 knockout derivatives. The experiment is classed as cell-based, human. To be noted: dKO 293 cells; 1 μM senexin B. As for the experimental part:
as §3

Experiment [2] relates to TNFα-induced NFκB reporter activity in CDK8/19 dKO 293 cells. In words: NFκB-dependent luciferase reporter cell-based assay in CDK8/19 dKO 293 cells. Also noted: species or system human. Particulars: for IC50: Homo sapiens, read-out: NFkB activity Assay IC50; for effect on reporter induction in dKO cells: 293-dKO-NFκB-Luc cells. As for the experimental part:
as §1, §2

Experiment [3] concerns alkaline phosphatase (ALPase) activity in ST2 cells. Also noted: method as in PMID 23453217. Particulars: concentration enhancing ALPase activity to 200% of the control; cited from earlier work.
The mark [4] stands for this setting: Homo sapiens, HEK293, 3 h, 293-WT-NFKB-LUC#8, 10 ng/mL TNFα 3 h, read-out: NFkB activity Assay IC50.
The mark [5] stands for this setting: HEK293, 293-dKO-NFKB-LUC#2, 10 ng/mL TNFα 3 h.
Setting [6] is: 293-WT-NFKB-LUC#8, 10 ng/mL TNFα 3 h, read-out: NFkB activity Assay IC50.

Where two headings read alike, the source gives them in different places. A value given as a limit tells only on which side of the number the result lay.

On to `CN1CCN(C(=O)c2ccc3cc(CCNc4ncnc5ccc(C#N)cc45)ccc3c2)CC1` [senexin B], for which the IC50 in experiment [1] (setting [4]) is 114 nM; in experiment [1] (Homo sapiens, HEK293, 3 h, clone WT-#1, 10 ng/mL TNFα 3 h, read-out: IC50 for inhibition of TNFα-induced luciferase expression), 95 nM; in experiment [1] (Homo sapiens, HEK293, 3 h, clone WT-#2, 10 ng/mL TNFα 3 h, read-out: IC50 for inhibition of TNFα-induced luciferase expression), 135 nM; in experiment [1] (Homo sapiens, HEK293, 3 h, clone WT-#9, 10 ng/mL TNFα 3 h, read-out: IC50 for inhibition of TNFα-induced luciferase expression) it was 187 nM; in experiment [2] (setting [5]), more than 1000 nM. Moreover, the “inhibition of TNFα-induced luciferase expression” value in experiment [1] (all the WT clones, 1 μM senexin B) is on record as 70–80%. For the same molecule, the “inhibitory effect on TNFα induction of CXCL1” value in the experiment on CXCL1 mRNA expression was “completely abolished”. In addition, the “inhibitory effect on TNFα induction of IL8” value in the experiment with IL8 mRNA expression is “completely abolished”. Also, the “inhibition of TNFα-induced luciferase induction” value in experiment [2] (dKO cells, 1 μM senexin B, 10 ng/mL TNFα) is listed as “not in dKO cells”.

Regarding `CN(C)C1CC23CCC4(O2)C(=CCC2(C)C(c5ccc6ccncc6c5)=CCC24)C=C3C(O)C1O` (centres unmarked) [dCA, didehydro-cortistatin A], the IC50 in experiment [1] (Homo sapiens, HEK293, 3 h, read-out: NFkB activity Assay IC50) is 1.3 nM; in experiment [2] (HEK293, 3 h), more than 1000 nM. In experiment [1] (WT reporter cells, 10 ng/mL TNFα 3 h), the “maximal (plateau) inhibition of TNFα-induced reporter induction” value is given as ~ 80%. Also, the “effect on reporter induction in dKO cells” value (“effect on reporter induction” below) in experiment [2] (10 ng/mL TNFα 3 h) was “no effect”.

As to `CC(C)C[C@H](NC(=O)[C@H](Cc1ccccc1)NC(=O)c1cnccn1)B(O)O` [Bortezomib, bortezomib], the figures for the IC50 in experiment [1] (setting [4]) and in experiment [2] (setting [5]) were 311 nM and 173 nM, respectively.

As for `CCc1cnn2c(NCc3ccc[n+]([O-])c3)cc(N3CCCC[C@H]3CCO)nc12` [Dinaciclib], the “extent of inhibition of NFκB-dependent promoter activation” value in experiment [1] (10 ng/mL TNFα 3 h) was “completely inhibited”; in experiment [2] (dKO cells, 10 ng/mL TNFα 3 h), “completely inhibited”.

`CNC(=O)c1ccc(N2CCCN(c3ccnc4sc(C(N)=O)c(N)c34)CC2)cc1` [15v]: the IC50 in experiment [1] (setting [4]) came out at 23.1 nM. In addition, the “ALP activity Assay EC200” value in experiment [3] is 54.2 nM.

`CN(C)C(=O)c1ccc(N2CCCN(c3ccnc4sc(C(N)=O)c(N)c34)CC2)cc1` [15u]: the IC50 in experiment [1] (setting [6]) is 10 nM; in experiment [1] (setting [4]), 10.3 nM; in experiment [2] (setting [5]), more than 1000 nM. The “ALP activity Assay EC200” value in experiment [3] is reported as 31.9 nM. The “effect on reporter induction” value in experiment [2] (10 ng/mL TNFα 3 h) was “none of them showed any activity”.

For the molecule `Cc1ccc(N2CCCN(c3ccnc4sc(C(N)=O)c(N)c34)CC2)cc1` [15n], the IC50 in experiment [1] (setting [4]) amounted to 43.1 nM. The “ALP activity Assay EC200” value in experiment [3] is on record as 115.4 nM.

Consider `COc1ccc(N2CCCN(c3ccnc4sc(C(N)=O)c(N)c34)CC2)cc1` [15q], for which the IC50 in experiment [1] (setting [4]) was 37.8 nM. Moreover, the “ALP activity Assay EC200” value in experiment [3] is 88.1 nM.

On to `CC(=O)c1c(C)c2cnc(Nc3ccc(N4CCNCC4)cn3)nc2n(C2CCCC2)c1=O` [Palbociclib, palbociclib], for which the IC50 in experiment [1] (setting [4]) and in experiment [2] (setting [5]) was more than 2000 nM each time. In addition, the “extent of inhibition of NFκB-dependent promoter activation” value was “only weak inhibitory effects at high concentrations” in experiment [1] (10 ng/mL TNFα 3 h) and “only weak inhibitory effects at high concentrations” in experiment [2] (dKO cells, 10 ng/mL TNFα 3 h).

As to `NC(=O)c1sc2nccc(N3CCCN(c4ccccc4)CC3)c2c1N` [15k], in experiment [2] (10 ng/mL TNFα 3 h), the “effect on reporter induction” value is reported as “none of them showed any activity”.

Take `CN(C)C(=O)Cc1ccc(N2CCCN(c3ccnc4sc(C(N)=O)c(N)c34)CC2)cc1` [15w]: the IC50 is 4 nM in experiment [1] (setting [6]), 4.1 nM in experiment [1] (setting [4]) and more than 1000 nM in experiment [2] (setting [5]). The “ALP activity Assay EC200” value in experiment [3] is given as 6.6 nM. Further, the “effect on reporter induction” value in experiment [2] (10 ng/mL TNFα 3 h) is listed as “none of them showed any activity”.

On to `Cc1ccc(S(=O)(=O)N[C@@H](Cc2ccccc2)C(=O)CCl)cc1` [TPCK, tosyl-L-phenylalanyl-chloromethane ketone], for which the IC50 in experiment [1] (setting [4]) is 13000 nM; in experiment [2] (setting [5]), 12000 nM. In addition, the “extent of inhibition of NFκB-dependent promoter activation” value is given as “complete suppression” in experiment [1] (10 ng/mL TNFα 3 h) and “complete suppression” in experiment [2] (dKO cells, 10 ng/mL TNFα 3 h).

Take `CN1CC[C@H](c2c(O)cc(O)c3c(=O)cc(-c4ccccc4Cl)oc23)[C@H](O)C1` [Flavopiridol]: the IC50 in experiment [1] (setting [4]) was 34 nM; in experiment [2] (setting [5]), 26 nM. Besides, the “extent of inhibition of NFκB-dependent promoter activation” value in experiment [1] (10 ng/mL TNFα 3 h) is recorded as “completely inhibited”; in experiment [2] (dKO cells, 10 ng/mL TNFα 3 h) it was “completely inhibited”.

Take `CN(C)C/C=C/C(=O)Nc1ccc(C(=O)Nc2cccc(Nc3ncc(Cl)c(-c4c[nH]c5ccccc45)n3)c2)cc1` [THZ1]: the IC50 was found to be 220 nM in experiment [1] (setting [4]) and 352 nM in experiment [2] (setting [5]). The “extent of inhibition of NFκB-dependent promoter activation” value in experiment [1] (10 ng/mL TNFα 3 h) is given as “completely inhibited”; in experiment [2] (dKO cells, 10 ng/mL TNFα 3 h), “completely inhibited”.

The term IC50 denotes the concentration needed to halve the response being measured.
